Data as given in US9937115B2, “Oral care compositions with improved flavor” (priority 2010, dated 2018).
Structures can show the parent of a compound that is named as a salt. Where two headings read alike, the source gives them in different places.

Target: T1, TRPA1 receptor (Homo sapiens, UniProt O75762)
T1 construct: expressed in transfected cells; host or cells: HEK cell line
Test: cell-based
Set-up: activation: dose or concentration left out as unconfirmed
Description: The term “TRPA1 activator” as used herein refers to any component which at a concentration of 1 mM gives a calcium flux count of at least 1000 counts above the background level of calcium present in the cell according to the FLIPR method as discussed herein. The term “count” is defined as the change in fluorescence of the transfected cell lines due to the influx of calcium across the cell membrane, which reacts with the calcium sensitive dye present within the cells.
In order to select TRPA1 agonists that would be preferred for reducing off-tasting chemical components found in oral care compositions, calcium flux receptor activity on the TRPA1 was utilized as the criteria for selection of actives. With allyl isothiocyanate as the TRPA1 positive control, molecules that directly activated the TRPA1 receptor were screened in dimethylsulfoxide (DMSO). Pure molecules of each material were dissolved in DMSO at a concentration of 100 micormolar and then added to an HEK cell line containing the TRPA1 receptor. If they are TRPA1 agonists, they will cause a calcium flux in the cell which fluoresces and may then be measured using a FLIPR machine.

[1] = HEK293, percentage of the control (allyl isothiocyanate) calcium count, material dissolved in DMSO at 100 micromolar, HEK cells with TRPA1, direct addition, read-out: TRPA1 Direct addition
[2] = HEK293, percentage of the control (allyl isothiocyanate) calcium count, material dissolved in DMSO at 100 micromolar, HEK cells with TRPA1, pre-incubation, read-out: TRPA1 Pre-incubation
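Throughout, for TRPA1 Pre-incubation: values above 100 mean more active than the control.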

T1 sequence (O75762 whole entry): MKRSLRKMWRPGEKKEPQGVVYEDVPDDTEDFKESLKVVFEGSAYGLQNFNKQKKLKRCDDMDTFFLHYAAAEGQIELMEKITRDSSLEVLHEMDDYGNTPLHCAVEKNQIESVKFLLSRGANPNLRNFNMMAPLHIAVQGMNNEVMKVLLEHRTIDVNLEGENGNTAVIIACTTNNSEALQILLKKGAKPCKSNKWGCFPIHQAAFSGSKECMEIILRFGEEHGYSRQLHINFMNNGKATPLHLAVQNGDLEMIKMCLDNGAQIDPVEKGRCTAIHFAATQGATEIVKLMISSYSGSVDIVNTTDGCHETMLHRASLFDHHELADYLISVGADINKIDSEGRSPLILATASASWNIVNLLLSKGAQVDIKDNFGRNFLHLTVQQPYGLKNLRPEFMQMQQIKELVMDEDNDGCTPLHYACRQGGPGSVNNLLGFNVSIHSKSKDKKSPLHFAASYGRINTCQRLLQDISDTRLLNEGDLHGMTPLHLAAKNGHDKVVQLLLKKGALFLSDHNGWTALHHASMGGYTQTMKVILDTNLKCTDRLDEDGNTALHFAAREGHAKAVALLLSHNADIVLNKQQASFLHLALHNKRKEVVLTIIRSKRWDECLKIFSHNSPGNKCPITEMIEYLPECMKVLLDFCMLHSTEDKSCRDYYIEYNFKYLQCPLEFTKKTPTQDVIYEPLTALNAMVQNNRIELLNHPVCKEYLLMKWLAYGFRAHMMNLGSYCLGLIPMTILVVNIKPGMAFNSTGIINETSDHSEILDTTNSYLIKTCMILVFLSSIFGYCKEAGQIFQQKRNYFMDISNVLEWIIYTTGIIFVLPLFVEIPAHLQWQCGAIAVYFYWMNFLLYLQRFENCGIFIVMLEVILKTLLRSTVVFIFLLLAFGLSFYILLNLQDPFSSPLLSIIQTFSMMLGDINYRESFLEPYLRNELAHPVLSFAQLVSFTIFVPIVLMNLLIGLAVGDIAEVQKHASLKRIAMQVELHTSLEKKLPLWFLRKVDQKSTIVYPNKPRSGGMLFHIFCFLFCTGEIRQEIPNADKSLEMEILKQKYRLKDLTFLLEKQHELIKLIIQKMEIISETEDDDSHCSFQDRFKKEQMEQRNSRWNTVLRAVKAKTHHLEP

SMILES | activation at 100 µM [1] | activation [2] | activation at 100 µM [2] | activation (HEK293, read-out: TRPA1 Direct addition) | activation (HEK293, read-out: TRPA1 Pre-incubation)
CC(=O)OC1CC2CCC1(C)C2(C)C (centres unmarked) [Bornyl Acetate] | -0.6% | 51.2% | – | – | –
CC(C)CC(=O)OC1CC2CCC1(C)C2(C)C (centres unmarked) [Bornyl Isovalerate] | -1.36% | 72.5% | – | – | –
CCCCOC(=O)CCC [Butyl Butyrate] | -0.66% | 62.3% | – | – | –
CCCCOC(=O)[C@H](C)O [Butyl L-Lactate] | -0.66% | – | 67.3% | – | –
CCCCOC(=O)CC [Butyl Propionate] | -0.32% | 53.4% | – | – | –
CCCC=O [Butyraldehyde] | 28.9% | 66.2% | – | – | –
C=C1C2CCC(C2)C1(C)C (centres unmarked) [Camphene] | -1.43% | 96.5% | – | – | –
O=CC=Cc1ccccc1 [Cinnamaldehyde] | 114% | -1.2% | – | – | –
OC/C=C/c1ccccc1 [Cinnamic Alcohol] | -1.45% | 84% | – | – | –
CC(=O)OCC=Cc1ccccc1 [Cinnamyl Acetate] | -0.13% | 70.1% | – | – | –
CC(C)CC(=O)OCC=Cc1ccccc1 [Cinnamyl Isovalerate] | -0.43% | 49.7% | – | – | –
COC(C=C(C)CCC=C(C)C)OC [Citral Dimethyl Acetal] | 0.16% | 78% | – | – | –
CC(C)=CCCC(C)CCOC=O (centres unmarked) [Citronellyl Formate] | -0.57% | 89.5% | – | – | –
CC(C)=CCCC(C)CCOCC=O (centres unmarked) [Citronellyl Oxyacetaldehyde] | 148% | -1.16% | – | – | –
CC(C)c1ccc(C=O)cc1 [Cuminaldehyde] | 25.6% | 72.9% | – | – | –
CC(=O)OC1CCCCC1 [Cyclohexyl Acetate] | -1.27% | 68.8% | – | – | –
CCOC(=O)C(C)CC (centres unmarked) [Ethyl 2-Methylbutyrate] | 0.26% | 82% | – | – | –
CCOC(=O)c1ccccc1 [Ethyl Benzoate] | -0.07% | 60.3% | – | – | –
CCCC(=O)OCC [Ethyl Butyrate] | -0.32% | 87% | – | – | –
CCCCCCC(=O)OCC [Ethyl Heptanoate] | 0.23% | 79% | – | – | –

SMILES | activation at 100 µM [1] | activation [2] | activation at 100 µM [2] | activation (HEK293, read-out: TRPA1 Direct addition) | activation (HEK293, read-out: TRPA1 Pre-incubation)
CCCCCC(=O)OCC [Ethyl Hexanoate] | 0.41% | 92.3% | – | – | –
CCOC(=O)CC(C)C [Ethyl Isovalerate] | -0.05% | 62.8% | – | – | –
CCOC(=O)C(C)O (centres unmarked) [Ethyl Lactate] | -0.14% | 67.4% | – | – | –
CCCCCCCCCCCC(=O)OCC [Ethyl Laurate] | 0.12% | 75.8% | – | – | –
CCCCCCCC(=O)OCC [Ethyl Octanoate] | -0.14% | 87.3% | – | – | –
CCOC(=O)Cc1ccccc1 [Ethyl Phenylacetate] | – | – | – | -0.28% | 76.2%
CCOC(=O)c1ccccc1O [Ethyl Salicylate] | -0.53% | 106% | – | – | –
CCCCC(=O)OCC [Ethyl Valerate] | -0.08% | 101% | – | – | –
O=C1CCCCCCCCCCCC(=O)OCCO1 [Ethylene Brassylate] | -0.58% | 37.2% | – | – | –
C=CCc1ccc(OC(=O)c2ccccc2)c(OC)c1 [Eugenol benzoate] | 22.9% | 57.3% | – | – | –
CC(C)=CCCC(C)=CCCC(C)=CCO [Farnesol] | 0.1% | 56.6% | – | – | –
O=Cc1ccco1 [Furfural] | -0.15% | 69% | – | – | –
CC1=CCC(C(C)C)=CC1 [Gamma-Terpinene] | 0.21% | 61.5% | – | – | –
CC(C)=CCC/C(C)=C/CO [Geraniol] | 5.19% | 113% | – | – | –
CC(=O)OC/C=C(\C)CCC=C(C)C [Geranyl Acetate] | 0.33% | 63.2% | – | – | –
CCCC(=O)OC/C=C(\C)CCC=C(C)C [Geranyl Butyrate] | 0.12% | 61.5% | – | – | –
CCC(=O)OC/C=C(\C)CCC=C(C)C [Geranyl Propionate] | 0.09% | 47.9% | – | – | –
COc1ccccc1O [Guaiacol] | -0.08% | 87.7% | – | – | –
CCCCCCCO [Heptyl Alcohol] | 0.59% | 70.7% | – | – | –
CCCCCC(=O)O [Hexanoic Acid] | -0.4% | 67.2% | – | – | –
